Target: T1, NLRP3 inflammasome (Homo sapiens, UniProt Q96P20)
T1 construct: endogenous in cells; host or cells: THP-1 monocytic cells
Experiment: IL-1β secretion assay (NLRP3 IC50) in LPS-primed, nigericin-activated THP-1 cells, HTRF
Type: cell-based
Conditions: monocytic THP-1 cells; LPS 10 ng/mL 3 h priming, then compound + nigericin 10 μM 2 h; relative IC50, 10 concentrations, geometric mean
Method in brief: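 IL-1β in supernatant read by HTRF after 2 h co-incubation of compound (0.1% DMSO, 10 concentrations, 1:3 series) with nigericin at 10 μM final, following 3 h LPS (10 ng/mL) priming of THP-1 monocytes at 37° C. Inhibition normalised to unactivated and no-compound controls; geometric-mean relative IC50 from 4-parameter logistic model.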

T1 sequence (Q96P20 whole entry): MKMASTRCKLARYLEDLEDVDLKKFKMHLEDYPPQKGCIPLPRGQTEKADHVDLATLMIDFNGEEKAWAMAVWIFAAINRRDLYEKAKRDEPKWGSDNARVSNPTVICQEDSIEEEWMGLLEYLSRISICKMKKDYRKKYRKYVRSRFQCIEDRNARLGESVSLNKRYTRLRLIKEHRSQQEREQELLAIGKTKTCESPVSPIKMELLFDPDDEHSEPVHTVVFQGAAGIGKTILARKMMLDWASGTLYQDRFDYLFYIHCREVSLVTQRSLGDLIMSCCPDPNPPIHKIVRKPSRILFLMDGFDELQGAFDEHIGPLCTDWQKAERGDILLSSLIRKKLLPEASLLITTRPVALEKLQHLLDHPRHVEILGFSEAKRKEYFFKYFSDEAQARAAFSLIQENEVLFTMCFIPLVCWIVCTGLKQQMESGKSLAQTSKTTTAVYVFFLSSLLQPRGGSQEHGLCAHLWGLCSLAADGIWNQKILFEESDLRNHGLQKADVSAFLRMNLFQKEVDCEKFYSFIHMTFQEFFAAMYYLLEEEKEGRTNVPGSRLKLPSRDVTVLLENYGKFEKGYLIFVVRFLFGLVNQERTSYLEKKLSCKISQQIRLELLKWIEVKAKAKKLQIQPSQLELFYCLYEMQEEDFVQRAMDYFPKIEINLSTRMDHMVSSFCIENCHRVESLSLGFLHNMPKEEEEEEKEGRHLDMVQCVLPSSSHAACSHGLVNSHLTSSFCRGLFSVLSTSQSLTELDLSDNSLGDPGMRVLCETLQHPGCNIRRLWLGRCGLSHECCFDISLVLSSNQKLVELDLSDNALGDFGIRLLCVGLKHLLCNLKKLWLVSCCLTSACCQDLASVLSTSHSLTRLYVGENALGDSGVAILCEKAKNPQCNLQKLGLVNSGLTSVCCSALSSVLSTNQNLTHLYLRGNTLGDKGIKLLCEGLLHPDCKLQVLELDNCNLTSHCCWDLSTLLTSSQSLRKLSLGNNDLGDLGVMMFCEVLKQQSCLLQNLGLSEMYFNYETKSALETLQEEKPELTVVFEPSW

| IC50 | SMILES |
| --- | --- |
| 476 nM | CC(=O)N1CC[C@H]2CCN(c3ccc(-c4c(C)cc(C(F)(F)F)cc4O)nn3)[C@H]2C1 [Example 369, 1-[(3aR,7aR)-1-[6-[2-hydroxy-6-methyl-4-(trifluoromethyl)phenyl]pyridazin-3-yl]-3,3a,4,5,7,7a-hexahydro-2H-pyrrolo[2,3-c]pyridin-6-yl]ethanone] |
| 1270 nM | CC(=O)N1CC[C@@H]2CCN(c3ccc(-c4c(C)cc(C(F)(F)F)cc4O)nn3)[C@@H]2C1 [Example 370, 1-[(3aS,7aS)-1-[6-[2-hydroxy-6-methyl-4-(trifluoromethyl)phenyl]pyridazin-3-yl]-3,3a,4,5,7,7a-hexahydro-2H-pyrrolo[2,3-c]pyridin-6-yl]ethanone] |
| 234 nM | CC(=O)N1CC[C@H]2CCN(c3ccc(-c4c(C)cc(C(F)(F)F)cc4O)nn3)[C@H]2C1 [Example 395, 1-[(3aR,7aR)-1-[6-[2-hydroxy-6-methyl-4-(trifluoromethyl)phenyl]pyridazin-3-yl]-3,3a,4,5,7,7a-hexahydro-2H-pyrrolo[2,3-c]pyridin-6-yl]ethanone] |
| 22 nM | CN1CC[C@H]2OCCN(c3ccc(-c4c(O)cccc4C(F)(F)F)nn3)[C@H]2C1 [Example 402, 2-[6-[(4aS,8aR)-6-methyl-3,4a,5,7,8,8a-hexahydro-2H-pyrido[4,3-b][1,4]oxazin-4-yl]pyridazin-3-yl]-3-(trifluoromethyl)phenol] |
| 0.75 nM | CCN1CC[C@H]2OCCN(c3ccc(-c4c(C)cc(C)cc4O)nn3)[C@H]2C1 [Example 404, 2-[6-[(4aS,8aR)-6-ethyl-3,4a,5,7,8,8a-hexahydro-2H-pyrido[4,3-b][1,4]oxazin-4-yl]pyridazin-3-yl]-3,5-dimethyl-phenol] |
| 638 nM | CC(=O)N1CC[C@H]2OCCN(c3ccc(-c4c(C)cccc4O)nn3)[C@H]2C1 [Example 409, 1-[(4aS,8aR)-4-[6-(2-hydroxy-6-methyl-phenyl)pyridazin-3-yl]-3,4a,5,7,8,8a-hexahydro-2H-pyrido[4,3-b][1,4]oxazin-6-yl]ethanone] |
| 396 nM | CCc1cccc(O)c1-c1ccc(N2CCO[C@@H]3CCN(C(C)=O)C[C@@H]32)nn1 [Example 424, 1-[(4aS,8aR)-4-[6-(2-ethyl-6-hydroxy-phenyl)pyridazin-3-yl]-3,4a,5,7,8,8a-hexahydro-2H-pyrido[4,3-b][1,4]oxazin-6-yl]ethanone] |
| 569 nM | CCc1cccc(O)c1-c1cc(C)c(N2CCO[C@@H]3CCN(C)C[C@@H]32)nn1 [Example 439, 2-[6-[(4aS,8aR)-6-methyl-3,4a,5,7,8,8a-hexahydro-2H-pyrido[4,3-b][1,4]oxazin-4-yl]-5-methyl-pyridazin-3-yl]-3-ethyl-phenol] |
| 195 nM | CC(=O)N1CC[C@H]2OCCN(c3cc(C(F)F)c(-c4ccc(Cl)cc4O)nn3)[C@H]2C1 [Example 442, 1-[(4aS,8aR)-4-[6-(4-chloro-2-hydroxy-phenyl)-5-(difluoromethyl)pyridazin-3-yl]-3,4a,5,7,8,8a-hexahydro-2H-pyrido[4,3-b][1,4]oxazin-6-yl]ethanone] |
| 1 nM | CCc1cc(Cl)cc(O)c1-c1ccc(N2CCO[C@@H]3CCN(C)C[C@@H]32)nn1 [Example 461, 2-[6-[(4aS,8aR)-6-methyl-3,4a,5,7,8,8a-hexahydro-2H-pyrido[4,3-b][1,4]oxazin-4-yl]pyridazin-3-yl]-5-chloro-3-ethyl-phenol] |

More lines, now with the values behind:

| SMILES | IC50 |
| --- | --- |
| Cc1cc(C)c(-c2ccc(N3CCOc4ccncc43)nn2)c(O)c1 [Example 362, 2-[6-(2,3-dihydropyrido[4,3-b][1,4]oxazin-4-yl)pyridazin-3-yl]-3,5-dimethyl-phenol] | 3540 nM |
| O=S1(=O)CCN(c2ccc(-c3c(O)cc(Cl)cc3Cl)nn2)CC1 [Example 399, 3,5-dichloro-2-[6-(1,1-dioxo-1,4-thiazinan-4-yl)pyridazin-3-yl]phenol] | 564 nM |
| Cc1cc(C)c(-c2ccc(N3CC4CCC3CN(C)C4)nn2)c(O)c1 (stereo not drawn) [Example 410, 3,5-dimethyl-2-[6-(3-methyl-3,6-diazabicyclo[3.2.2]nonan-6-yl)pyridazin-3-yl]phenol] | 2180 nM |
| Cc1cccc(O)c1-c1ccc(N2CCO[C@@H]3CCNC[C@@H]32)nn1 [Example 411, 2-[6-[(4aS,8aR)-2,3,4a,5,6,7,8,8a-octahydropyrido[4,3-b][1,4]oxazin-4-yl]pyridazin-3-yl]-3-methyl-phenol] | 344 nM |
| Cc1cc(C(F)(F)F)cc(O)c1-c1ccc(N2CC3CCC2CN(C)C3)nn1 (stereo not drawn) [Example 417, 3-methyl-2-[6-(3-methyl-3,6-diazabicyclo[3.2.2]nonan-6-yl)pyridazin-3-yl]-5-(trifluoromethyl)phenol] | 716 nM |
| Cc1cc(C)c(-c2ccc(N3CCCC34CCCN(C)C4)nn2)c(O)c1 (stereo not drawn) [Example 428, 3,5-dimethyl-2-[6-(9-methyl-1,9-diazaspiro[4.5]decan-1-yl)pyridazin-3-yl]phenol] | 1020 nM |
| Cc1cc(C)c(-c2ccc(N3CCC4(CN(C)CCO4)C3)nn2)c(O)c1 (stereo not drawn) [Example 440, 3,5-dimethyl-2-[6-(9-methyl-6-oxa-2,9-diazaspiro[4.5]decan-2-yl)pyridazin-3-yl]phenol] | 3280 nM |
| Cc1cc(C)c(-c2ccc(N3CCCC4(COCCN4C)C3)nn2)c(O)c1 (stereo not drawn) [Example 441, 3,5-dimethyl-2-[6-(1-methyl-4-oxa-1,8-diazaspiro[5.5]undecan-8-yl)pyridazin-3-yl]phenol] | 4670 nM |
| Cc1cc(C)c(-c2ccc(N3CCC4(COCCN4C)C3)nn2)c(O)c1 (stereo not drawn) [Example 444, 3,5-dimethyl-2-[6-(6-methyl-9-oxa-2,6-diazaspiro[4.5]decan-2-yl)pyridazin-3-yl]phenol] | 4060 nM |
| Cc1cc(C)c(-c2ccc(N3CC[C@]4(CN(C)CCO4)C3)nn2)c(O)c1 [Example 445, 3,5-dimethyl-2-[6-[(5S)-9-methyl-6-oxa-2,9-diazaspiro[4.5]decan-2-yl]pyridazin-3-yl]phenol] | 1900 nM |
| Cc1cc(C)c(-c2ccc(N3CC[C@@]4(CN(C)CCO4)C3)nn2)c(O)c1 [Example 446, 3,5-dimethyl-2-[6-[(5R)-9-methyl-6-oxa-2,9-diazaspiro[4.5]decan-2-yl]pyridazin-3-yl]phenol] | 815 nM |
| Cc1cc(C)c(-c2ccc(N3CCOCC34CCCN(C)C4)nn2)c(O)c1 (stereo not drawn) [Example 449, 3,5-dimethyl-2-[6-(8-methyl-4-oxa-1,8-diazaspiro[5.5]undecan-1-yl)pyridazin-3-yl]phenol] | 4190 nM |
| Cc1cc(C)c(-c2ccc(N3CC[C@]4(COCCN4C)C3)nn2)c(O)c1 [Example 450, 3,5-dimethyl-2-[6-[(5R)-6-methyl-9-oxa-2,6-diazaspiro[4.5]decan-2-yl]pyridazin-3-yl]phenol] | 2040 nM |
| Cc1cc(C)c(-c2ccc(N3CC[C@@]4(COCCN4C)C3)nn2)c(O)c1 [Example 451, 3,5-dimethyl-2-[6-[(5S)-6-methyl-9-oxa-2,6-diazaspiro[4.5]decan-2-yl]pyridazin-3-yl]phenol] | 1650 nM |
| Cc1cc(C)c(-c2ccc(N3CCOCC34CN(C)C4)nn2)c(O)c1 [Example 455, 3,5-dimethyl-2-[6-(2-methyl-8-oxa-2,5-diazaspiro[3.5]nonan-5-yl)pyridazin-3-yl]phenol] | 7150 nM |
| CCN1CC[C@H]2OCCN(c3cc(C(F)F)c(-c4ccc(Cl)cc4O)nn3)[C@H]2C1 [Example 456, 2-[6-[(4aS,8aR)-6-ethyl-3,4a,5,7,8,8a-hexahydro-2H-pyrido[4,3-b][1,4]oxazin-4-yl]-4-(difluoromethyl)pyridazin-3-yl]-5-chloro-phenol] | 2 nM |
| CC(=O)N1CC[C@H]2CCN(c3cc(C)c(-c4ccc(C)cc4O)nn3)[C@H]2C1 [Example 457, 1-[(3aR,7aR)-1-[6-(2-hydroxy-4-methyl-phenyl)-5-methyl-pyridazin-3-yl]-3,3a,4,5,7,7a-hexahydro-2H-pyrrolo[2,3-c]pyridin-6-yl]ethenone] | 432 nM |
| CC(=O)N1CCC[C@@H]2[C@H]1CCCN2c1ccc(-c2c(C)cc(C(F)(F)F)cc2O)nn1 [Example 462, 1-[(4aR,8aR)-5-[6-[2-hydroxy-6-methyl-4-(trifluoromethyl)phenyl]pyridazin-3-yl]-2,3,4,4a,6,7,8,8a-octahydro-1,5-naphthyridin-1-yl]ethanone] | 251 nM |
| CC(=O)N1CCC[C@H]2[C@@H]1CCCN2c1ccc(-c2c(C)cc(C(F)(F)F)cc2O)nn1 [Example 463, 1-[(4aS,8aS)-5-[6-[2-hydroxy-6-methyl-4-(trifluoromethyl)phenyl]pyridazin-3-yl]-2,3,4,4a,6,7,8,8a-octahydro-1,5-naphthyridin-1-yl]ethanone] | 3780 nM |
| CCc1cc(N2CCO[C@@H]3CCN(C)C[C@@H]32)nnc1-c1ccc(C)cc1O [Example 470, 2-[6-[(4aS,8aR)-6-methyl-3,4a,5,7,8,8a-hexahydro-2H-pyrido[4,3-b][1,4]oxazin-4-yl]-4-ethyl-pyridazin-3-yl]-5-methyl-phenol] | 0.38 nM |
| Cc1cc(N2CCO[C@@H]3CCN(C)C[C@@H]32)nnc1-c1ccc2c(c1O)CCC2 [Example 471, 5-[6-[(4aS,8aR)-6-methyl-3,4a,5,7,8,8a-hexahydro-2H-pyrido[4,3-b][1,4]oxazin-4-yl]-4-methyl-pyridazin-3-yl]indan-4-ol] | 1 nM |
| Cc1ccc(-c2nnc(N3CCO[C@@H]4CCN(C(C)C)C[C@@H]43)cc2C)c(O)c1 [Example 472, 2-[6-[(4aS,8aR)-6-isopropyl-3,4a,5,7,8,8a-hexahydro-2H-pyrido[4,3-b][1,4]oxazin-4-yl]-4-methyl-pyridazin-3-yl]-5-methyl-phenol] | 1 nM |
| CCN1CC[C@H]2OCCN(c3cc(C)c(-c4ccc(F)cc4O)nn3)[C@H]2C1 [Example 479, 2-[6-[(4aS,8aR)-6-ethyl-3,4a,5,7,8,8a-hexahydro-2H-pyrido[4,3-b][1,4]oxazin-4-yl]-4-methyl-pyridazin-3-yl]-5-fluoro-phenol] | 5 nM |
